Experiment [1] has as its system IL-1β secretion in THP-1 cells (NLRP3 inflammasome). The experiment can be described thus: Inhibition of IL-1β secretion in THP-1 cells. It counts as cell-based. The conditions noted are these: Homo sapiens, three independent experiments. As to the method:
Through SAR analysis, we identified compound F14 as the target compound for further investigation. To further validate its activity, the half-inhibitory concentration (IC50) of compound F14 for IL-1β release was determined in the BMDM model. […] To more comprehensively assess the potential of compound F14, we further evaluated its inhibition of IL-1β in THP-1 cells.
Figure 3 F14 inhibits the secretion of IL-1β. (A) Detection of F14 inhibition of IL-1 β secretion in BMDM cells; (B) Detection of F14 inhibition of IL-1 β secretion in THP-1 cells. IC50 calculation and dose-response curve fitting were performed using GraphPad Prism (8.0) software. All data were obtained from three independent experiments.

For experiment [2], the system named is DSS-induced acute colitis. The experiment can be described thus: DSS-induced acute colitis in mice. The note with it: 10 and 20 mg/kg daily, gavage. In kind it is in vivo, mouse. As to the method: To further validate the in vivo biological activity of compound F14, we used the DSS-induced mouse colitis model to assess its anti-inflammatory effects. The experimental design was as follows: mice were divided into the normal group, model group (DSS), positive control group (DSS + sulfasalazine), low-dose group (DSS + 10 mg/kg), and high-dose group (DSS + 20 mg/kg). Mice in the normal group were given regular water with no treatment; the positive control group received sulfasalazine as the positive drug at a daily dose of 200 mg/kg; the low-dose and high-dose groups were administered 10 mg/kg and 20 mg/kg of F14, respectively, each day. During the experiment, acute colitis in mice was induced by drinking water containing 3% DSS […]. The mice’s body weight changes, fecal blood presence, and disease activity index (DAI) were recorded daily. […] Goblet cells are a type of colon epithelial cell, and their primary function is to secrete mucus, which helps maintain the stability of the intestinal environment. During the pathological process of colitis, the number of goblet cells decreased, and their mucus-secreting function was impaired. In histological examinations, the number and secretion function of goblet cells are important indicators of colitis.
Male C57BL/6 mice, 18–20 g, were purchased from Charles River (China). All experiments and animal care procedures were approved by the Animal Resource Center of Anhui Medical University by the National Institutes of Health Guide for the Care and Use of Laboratory Animals (20230875). This study used DSS induction to establish an acute colitis model in mice. Mice in the experimental group were given free access to a 3% DSS solution for 7 days to induce an intestinal inflammation phenotype. The positive control group (sulfasalazine, 200 mg/kg) and the treatment group were gavage administration daily, using a 0.5% carboxymethyl cellulose sodium (CMC-Na) solution as the drug vehicle. The normal control and model groups received an equal volume of blank CMC-Na solution. Daily monitoring of weight changes and clinical symptoms was performed during the experimental period, including fecal characteristics (formed/loose/watery stools) and the degree of rectal bleeding (occult blood/gross blood in feces). On day 10, at the end of the experiment, the colonic sections of the mice were carefully excised. The excised colon was examined, and the length of the colon was measured. Some colon tissues were fixed in 4% formaldehyde and used for HE staining and immunohistochemical analysis for subsequent evaluations.

Another experiment deals with THP-1 cells. The experiment can be described thus: LDH release assay. The conditions noted are these: NLRP3 inflammasome activation by LPS/Nigericin. In kind it is cell-based. From the text: Pyroptosis is a form of programmed cell death, typically triggered by the activation of inflammasomes within the cell. It is characterized by the rupture of the cell membrane, releasing cellular contents (such as Lactate Dehydrogenase, LDH), which enhances the inflammatory response. Unlike apoptosis, pyroptosis is initiated through the activation of inflammasomes, involving distinct molecular mechanisms, and is often accompanied by cell swelling and rupture. In contrast, apoptosis is triggered by the activation of Caspase-3, leading to systemic degradation within the cell while maintaining the integrity of the cell membrane. The cell undergoes controlled self-degradation without provoking an immune response. Inhibiting pyroptosis is crucial for alleviating inflammation and promoting tissue repair. To investigate the effect of compound F14 on pyroptosis, we employed flow cytometry and lactate dehydrogenase (LDH) release assays for systematic analysis. Flow cytometry was used to assess the impact of F14 on pyroptosis under inflammatory conditions.
Count the THP-1 cells and inoculate them into a 96-well plate. Add 50 ng/mL PMA and culture the cells at 37 °C in a 5% CO2 incubator for 24 h. Add LPS-containing medium and stimulate the cells for 3 h to induce an inflammatory response. Add F14 and incubate for 1 h, then add Nigericin and stimulate for 30 min to induce pyroptosis. […]
(Release of lactate dehydrogenase indicates damage to the cell membrane.)

For the next experiment, the system named is NLRC4 inflammasome. The experiment can be described thus: NLRC4 inflammasome activation induced by S.typhi in BMDMs. In kind it is cell-based, mouse. The conditions noted are these: F14 10 μM, LPS-primed BMDMs. From the text: (§1) The NLRP3 inflammasome can be activated by various stimuli, such as microbial toxins and urate crystals. This process plays a central role in the pathogenesis of many inflammatory diseases. To assess whether F14 exerts a broad-spectrum inhibitory effect on NLRP3 inflammasome activation, we used three different activators—ATP, MSU, and Nigericin to stimulate BMDMs. […] Among the inflammasome family, NLRC4 and AIM2 are also protein complexes involved in the innate immune response, playing key roles in inflammatory regulation during infection and tissue damage. Poly (dA:dT) was used to induce AIM2 activation, while S.typhi was employed to stimulate NLRC4 activation.
(§2) The LPS concentration was 200 ng/mL to pretreat BMDM cells for 3 h, then F14 (10 μM) was added to treat the cells for 30 min, and then each inducer—Nigericin (10 μM, 0.5 h), ATP (2.5 mM, 0.5 h), MSU (150 μg/mL, 4 h), S.typhi (4 h), and poly-(dA:dT) (0.5 μg/mL, 4 h)—were added for stimulation. (A) F14 has a broad-spectrum inhibitory effect on NLRP3 inflammasome activation. (B) F14 has a specific inhibitory effect on NLRP3 inflammasome activation. Data are presented as the mean ± SEM (n = 3). *** p < 0.001 vs. the model group. NS, not significant.

For a further experiment, the system named is AIM2 inflammasome. Description: AIM2 inflammasome activation induced by poly (dA:dT) in BMDMs. The conditions noted are these: F14 10 μM, LPS-primed BMDMs. In kind it is cell-based, mouse.
Excerpt: as §1, with “activation. […].” for “activation.”
as §2

The values below come from publication PMC12388496, “Discovery of (E)-1,3-Diphenyl-2-Propen-1-One Derivatives as Potent and Orally Active NLRP3 Inflammasome Inhibitors for Colitis” (Molecules, 2025).

As usually defined, the IC50 is the concentration at which inhibition is half-maximal. Higher therefore signals a need for much substance. `Cc1ccc(C(=O)/C=C/c2cccc(O)c2)c(C)c1` [Compound F14, (E)-1-(2,4-dimethylphenyl)-3-(3-hydroxyphenyl)propyl-2-en-1-one]: in experiment [1], the IC50 is 880 nM. Besides, in experiment [2] (DSS mice), the colonic adhesion entry was “effectively alleviated” and the “goblet cells in colon tissue (histology)” value is reported as “inhibits the reduction”. In addition, in experiment [2] (vs model group (DSS)), the “disease activity index (DAI)” value was “inhibits the increase” and the “weight loss in mice” value was “significantly alleviates”. Besides, the LDH release entry in the experiment with THP-1 cells is “decreased in a concentration-dependent manner”. Moreover, the “activation of NLRC4 inflammasome” value in the experiment on NLRC4 inflammasome was “no effect”. Also, in the experiment with AIM2 inflammasome, the “activation of AIM2 inflammasome” value is “no effect”.
